We go through 6 molecules from patent US7829298B2, “Human G protein-coupled receptors for metabolic-related disorders” (Arena Pharmaceuticals, Inc., priority 2001, dated 2010).

The term EC50 denotes the concentration that produces a half-maximal response.

Each structure is given as a SMILES string. Entries after “also recorded” stand apart in the source; their conditions may differ. Where two headings read alike, the source gives them in different places.

The test system of series [1] is adipocyte primary cultures derived from human subcutaneous fat. The experiment in a line: Isoproterenol induced lipolysis in human primary adipocytes. It is filed as cell-based. The conditions noted are these: for EC50: read-out: EC50, inhibition of isoproterenol induced lipolysis. The text has this:
Lipolysis assays were done following the isolation of adipocytes from rat or human. The source of fat from rats was the epididymal fat and from humans was either subcutaneous or omental. Cells were isolated following collagenase digestion and floatation. An elevation of intracellular cAMP levels and concomitant activation of lipolysis via hormone sensitive lipase was accomplished using isoproterenol, forskolin, 3-isobutyl-1-methyl-xanthine (IBMX) or a combination thereof at concentrations and times determined empirically and depending on the source of tissue. […] Data was analyzed using Excel and PrismGraph.

The target in the next series is hRUP25 (Homo sapiens, UniProt Q8TDS4). Briefly: Inhibition of forskolin stimulated cAMP accumulation in stable CHO cells (adenylyl cyclase assay). The conditions noted are these: for inhibition of forskolin stimulated cAMP / agonist or not (in words): CHO cells expressing hRUP25. In kind it is cell-based.
Series [2] concerns the target T1, hRUP19 (Homo sapiens, UniProt Q9BXC0). The experiment in a line: Inhibition of forskolin stimulated cAMP in stable CHO cells (adenylyl cyclase assay). It is filed as cell-based. Further details: The full length hRUP19 was cloned by PCR using primers; expressed in transfected cells. To be noted: CHO cells expressing hRUP19. An excerpt:
(§1) A Flash Plate™ Adenylyl Cyclase kit (New England Nuclear; Cat. No. SMP004A) designed for cell-based assays can be modified for use with crude plasma membranes. The Flash Plate wells can contain a scintillant coating which also contains a specific antibody recognizing cAMP. The cAMP generated in the wells can be quantitated by a direct competition for binding of radioactive cAMP tracer to the cAMP antibody. The following serves as a brief protocol for the measurement of changes in cAMP levels in whole cells that express the receptors.
Media is carefully aspirated off and discarded. 10 ml of PBS is gently added to each dish of cells followed by careful aspiration. 1 ml of Sigma cell dissociation buffer and 3 ml of PBS are added to each plate. Cells were pipetted off the plate and the cell suspension was collected into a 50 ml conical centrifuge tube. Cells were then centrifuged at room temperature at 1,100 rpm for 5 min. The cell pellet was carefully re-suspended into an appropriate volume of PBS (about 3 ml/plate). The cells were then counted using a hemocytometer and additional PBS was added to give the appropriate number of cells (with a final volume of about 50 μl/well). […]

A further series concerns the target T2, hRUP38 (Homo sapiens, UniProt P49019).
T2 construct: The full length hRUP38 was cloned by PCR using hRUP38 specific primers; expressed in transfected cells
The description is as above. In kind it is cell-based.
From the text: as §1
Media is carefully aspirated off and discarded. 10 ml of PBS is gently added to each dish of cells followed by careful aspiration. 1 ml of Sigma cell dissociation buffer and 3 ml of PBS are added to each plate. Cells were pipetted off the plate and the cell suspension was collected into a 50 ml conical centrifuge tube. Cells were then centrifuged at room temperature at 1,100 rpm for 5 min. The cell pellet was carefully re-suspended into an appropriate volume of PBS (about 3 ml/plate). The cells were then counted using a hemocytometer and additional PBS was added to give the appropriate number of cells (with a final volume of about 50 μl/well).
The cells were then added to the wells and incubated for 60 min at room temperature. 100 μl of Detection Mix containing tracer cAMP was then added to the wells. Plates were then incubated additional 2 hours followed by counting in a Wallac MicroBeta scintillation counter. Values of cAMP/well were then extrapolated from a standard cAMP curve which was contained within each assay plate.

The next series has as its system male Sprague Dawley rats. The conditions noted are these: for plasma free fatty acids (FFA) level (in words): fasted rats, IP injection, 15 mg/kg, 30 mg/kg or 45 mg/kg, time course.
Series [3] has as its system rat epididymal fat derived adipocytes. The conditions noted are these: concentration of 10 μM.
Series [4] concerns the target T1, hRUP19. The conditions noted are these: HEK293 cells transfected with GqΔGi plus hRUP19.

T2 sequence (P49019 whole entry K94N/T173P/F198L/H253R/I317M/I346M): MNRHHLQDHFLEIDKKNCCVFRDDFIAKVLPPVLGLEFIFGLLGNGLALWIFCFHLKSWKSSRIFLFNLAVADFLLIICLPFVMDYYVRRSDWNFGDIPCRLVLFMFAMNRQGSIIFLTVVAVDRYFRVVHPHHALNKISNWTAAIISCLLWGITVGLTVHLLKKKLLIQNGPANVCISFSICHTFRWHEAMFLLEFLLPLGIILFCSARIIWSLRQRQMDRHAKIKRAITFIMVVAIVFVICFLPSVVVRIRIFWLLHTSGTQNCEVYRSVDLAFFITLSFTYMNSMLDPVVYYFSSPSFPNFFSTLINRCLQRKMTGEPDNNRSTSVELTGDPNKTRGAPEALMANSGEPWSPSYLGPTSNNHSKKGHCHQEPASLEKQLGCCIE
T1 sequence (Q9BXC0 whole entry): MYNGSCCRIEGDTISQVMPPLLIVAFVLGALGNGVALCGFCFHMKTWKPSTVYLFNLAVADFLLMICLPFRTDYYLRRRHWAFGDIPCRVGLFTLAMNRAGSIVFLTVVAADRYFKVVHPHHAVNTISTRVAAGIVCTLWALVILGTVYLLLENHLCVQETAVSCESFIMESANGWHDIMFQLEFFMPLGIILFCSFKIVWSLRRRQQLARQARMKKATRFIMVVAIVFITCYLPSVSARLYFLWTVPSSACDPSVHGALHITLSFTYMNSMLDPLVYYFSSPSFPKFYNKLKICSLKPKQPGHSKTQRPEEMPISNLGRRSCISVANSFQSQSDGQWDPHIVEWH
Sequence of hRUP25 (Q8TDS4 whole entry): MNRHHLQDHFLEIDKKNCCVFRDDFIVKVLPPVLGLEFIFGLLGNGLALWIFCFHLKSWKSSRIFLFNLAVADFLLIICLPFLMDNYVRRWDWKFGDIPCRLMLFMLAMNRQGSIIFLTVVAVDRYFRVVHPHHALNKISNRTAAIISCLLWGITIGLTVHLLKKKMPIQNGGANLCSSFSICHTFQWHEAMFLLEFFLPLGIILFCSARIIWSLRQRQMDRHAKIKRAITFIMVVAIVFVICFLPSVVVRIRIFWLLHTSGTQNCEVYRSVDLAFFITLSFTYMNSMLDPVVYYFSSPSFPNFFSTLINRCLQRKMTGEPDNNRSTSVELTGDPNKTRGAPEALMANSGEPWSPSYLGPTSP

On to `c1cncc(-c2nn[nH]n2)c1` [P-3-T, 3-tetrazole-5-pyridine, reference compound], for which the half-maximal effective concentration (EC50) in series [1] (adipocyte primary cultures derived from human subcutaneous fat) was 218 nM.
For `CN1CCC[C@H]1c1cccnc1` [(−)-nicotine, (−)-NICOTINE, reference compound], at hRUP25, the concentration giving a half-maximal response (EC50) was found to be 9800 nM and the “inhibition of forskolin stimulated cAMP / agonist or not (in words)” value was “agonist for RUP25”.
As to `CCOc1ccc(Br)cc1C=CC(=O)O` [3-(5-Bromo-2-ethoxy-phenyl)-acrylic acid], the entries for the “inhibition of forskolin stimulated cAMP / agonist or not (in words)” value on hRUP25, on hRUP19 [2] and on hRUP38 (hRUP38-expressing CHO cells) were “no effect”, “no effect” and “activates inhibition of forskolin stimulated cAMP; also recorded: agonist for RUP38”, respectively. For the same molecule, the EC50 on hRUP38 (hRUP38-expressing CHO cells) is 1170 nM.
As to `CCCc1nn(C)c(O)c1C(=O)c1cccnc1` [(5-Hydroxy-1-methyl-3-propyl-1H-pyrazol-4-yl)-pyridin-3-yl-methanone], the figures for the “inhibition of forskolin stimulated cAMP / agonist or not (in words)” value on hRUP25, on hRUP25 (listed as (5-Hydroxy-1-methyl-3-propyl-1H-pyrazol-4-yl)-pyridin-3-yl-methanone) and on hRUP38 (hRUP38-expressing CHO cells) were “activates inhibition of forskolin stimulated cAMP”, “agonist for RUP25” and “not for RUP38”, respectively. Also, on hRUP25 (hRUP25-expressing CHO cells (stable line #46 in FIG. 18B), read-out: EC50, inhibition of forskolin stimulated cAMP accumulation), the concentration for a half-maximal effect (EC50) came to 352 nM. Also, the “activity on hRUP38-expressing CHO cells (in words)” value on hRUP38 (up to a concentration of at least 100 μM (not shown)) is given as “no activity”.
`CC(C)n1nnc2cc(C(=O)O)ccc21` [1-Isopropyl-1H-benzotriazole-5-carboxylic acid]: the “inhibition of forskolin stimulated cAMP / agonist or not (in words)” value at hRUP25 is “no effect”; at hRUP19 [2] it was “no effect”; on hRUP38 (hRUP38-expressing CHO cells), “does and agonist for hRUP38”. Moreover, the “inhibition of isoproterenol stimulated lipolysis (in words)” value in series [1] (isoproterenol 100 nM, primary human adipocytes) is listed as “dose-dependant manner comparable to that of nicotinic acid; also recorded: dose-dependent manner comparable to that of nicotinic acid; also recorded: inhibit lipolysis”.
Turning to `O=C(O)c1cccnc1` [nicotinic acid, Nicotinic acid], the “plasma FFA versus vehicle control after inhibition, rebound (in words)” value in the series on male Sprague Dawley rats (45 mg/kg IP, at 3 hr) is recorded as “rebound effect”. Further, the figures for the “plasma free fatty acids (FFA) level (in words)” value with male Sprague Dawley rats and in the series with male Sprague Dawley rats (listed as niacin) were “lower plasma free fatty acids” and “significantly decrease”, respectively. For the same molecule, the “inhibition of isoproterenol induced lipolysis (in words)” value in series [3] is given as “inhibiting isoproterenol induced lipolysis”. In addition, the “inhibition of isoproterenol stimulated lipolysis (in words)” value in series [1] is recorded as “inhibit lipolysis”. Also, the EC50 in series [1] (Homo sapiens, Adipocyte) turned out to be 716 nM. Besides, the “inositol phosphates (IPs) accumulation / agonist or not (in words)” value at hRUP19 [4] was “unresponsive”; at hRUP19 [4] (listed as Nicotinic acid), “not for RUP38 or RUP19”.
